Source: PubChem BioAssay (NCI)
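Interpolation was linear, between the two tested concentrations surrounding the appropriate level; five concentrations were tested over 48 hours in 96-well plates. At the GI50, growth is halved. TGI is the concentration that stops growth completely.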 Where a SMILES comes first, the peptide text is derived from it. [ ]: non-standard residue; d: D form.

Assays:
Experiment in all cases: NCI tumour cell line growth inhibition, 48 h
DLD-1 colon = test system: DLD-1 colon
LXFL 529 NSCLC = test system: LXFL 529 NSCLC
XF 498 CNS = test system: XF 498 CNS
HOP-18 NSCLC = test system: HOP-18 NSCLC
KM20L2 colon = test system: KM20L2 colon
M19-MEL melanoma = test system: M19-MEL melanoma
P388 leukemia = test system: P388 leukemia
P388/ADR leukemia = test system: P388/ADR leukemia
SN12K1 renal = test system: SN12K1 renal
SNB-78 CNS = test system: SNB-78 CNS
RXF-631 renal = test system: RXF-631 renal

## CC(=O)/C=C(/C)[O-].CC(=O)/C=C(/C)[O-].CC(=O)[CH-]C(C)=O.CC(=O)[CH-]C(C)=O.[Zr+4]
DLD-1 colon
  GI50: > 100 µM
  TGI: > 100 µM
LXFL 529 NSCLC
  GI50: > 100 µM
  TGI: > 100 µM
XF 498 CNS
  GI50: > 100 µM
  TGI: > 100 µM

## CC(C)C[C@H](NC(=O)[C@H](CC(C)C)NC(=O)[C@@H](Cc1c[nH]c2ccccc12)NC(=O)[C@H](Cc1ccccc1)NC(=O)[C@@H](Cc1c[nH]c2ccccc12)NC(=O)[C@H](CCC(N)=O)NC(=O)[C@@H](CCC(N)=O)NC(=O)[C@@H]1CCCN1C(=O)[C@@H](CCCCN)NC(=O)[C@H]1CCCN1C(=O)[C@H](N)CCCN=C(N)N)C(N)=O (H-[dR][dP][dK]P[dQ]Q[dW]F[dW]LL-NH2)
DLD-1 colon
  TGI: > 100 µM
HOP-18 NSCLC
  TGI: > 100 µM
KM20L2 colon
  TGI: > 100 µM
M19-MEL melanoma
  TGI: > 100 µM
P388 leukemia
  TGI: > 100 µM
P388/ADR leukemia
  TGI: > 100 µM
SN12K1 renal
  TGI: > 100 µM
SNB-78 CNS
  TGI: > 100 µM
XF 498 CNS
  TGI: > 100 µM

## O=C1C(Cl)N(c2ccc([N+](=O)[O-])cc2)C1c1c[nH]c2ccccc12 (centres undefined)
DLD-1 colon
  TGI: > 100 µM
KM20L2 colon
  TGI: > 100 µM
LXFL 529 NSCLC
  TGI: > 100 µM
M19-MEL melanoma
  TGI: > 100 µM
XF 498 CNS
  TGI: > 100 µM

## O=S(=O)(O)c1cc(S(=O)(=O)O)c2cc(N=Nc3ccc(N=Nc4ccc(/C=C/c5ccc(N=[N+]([O-])c6ccc(/C=C/c7ccc(N=Nc8ccc(N=Nc9ccc%10cc(S(=O)(=O)O)cc(S(=O)(=O)O)c%10c9)cc8)cc7S(=O)(=O)O)c(S(=O)(=O)O)c6)cc5S(=O)(=O)O)c(S(=O)(=O)O)c4)cc3)ccc2c1
DLD-1 colon
  TGI: > 100 µM
HOP-18 NSCLC
  TGI: > 85.8 µM
KM20L2 colon
  TGI: > 100 µM
M19-MEL melanoma
  TGI: > 100 µM
P388 leukemia
  TGI: > 31.2 µM
SN12K1 renal
  TGI: > 100 µM
SNB-78 CNS
  TGI: > 100 µM
XF 498 CNS
  TGI: > 100 µM

## N=C1C=CC(=C(c2ccc(N)cc2)c2ccc(N)cc2)C=C1
DLD-1 colon
  TGI: > 100 µM
KM20L2 colon
  TGI: 21.5 µM
LXFL 529 NSCLC
  TGI: 14 µM
M19-MEL melanoma
  TGI: 16.8 µM
SNB-78 CNS
  TGI: 18.9 µM
XF 498 CNS
  TGI: 7.45 µM

## NC(=Nc1ccccc1)N/N=C/c1c[nH]c2ccccc12
DLD-1 colon
  TGI: 30.2 µM
HOP-18 NSCLC
  TGI: 73 µM
KM20L2 colon
  TGI: 1.09 µM
LXFL 529 NSCLC
  TGI: 14.4 µM
SNB-78 CNS
  TGI: 19.7 µM

## Cc1cc(C)[n+]2c(c1)C=CC2
DLD-1 colon
  TGI: > 100 µM
KM20L2 colon
  TGI: > 100 µM
LXFL 529 NSCLC
  TGI: > 100 µM
M19-MEL melanoma
  TGI: > 100 µM
SNB-78 CNS
  TGI: > 100 µM

## O=C(Nc1ccc(Br)cc1)C(=O)C(C(=O)c1ccc(Cl)c(Cl)c1)C1OC(=O)c2ccccc21 (centres undefined)
DLD-1 colon
  TGI: 39.6 µM
HOP-18 NSCLC
  TGI: 77 µM
KM20L2 colon
  TGI: > 100 µM
LXFL 529 NSCLC
  TGI: 23.2 µM
M19-MEL melanoma
  TGI: 31.1 µM
SNB-78 CNS
  TGI: > 100 µM
XF 498 CNS
  TGI: 96.2 µM

## CC1(C)CC(=O)C(CC2C(=O)CCCC2=O)C(=O)C1
DLD-1 colon
  TGI: > 100 µM
HOP-18 NSCLC
  TGI: > 100 µM
KM20L2 colon
  TGI: > 100 µM
LXFL 529 NSCLC
  TGI: > 100 µM
M19-MEL melanoma
  TGI: > 100 µM
SNB-78 CNS
  TGI: > 100 µM
XF 498 CNS
  TGI: > 100 µM

## C/C(=N\N=C(N)N)C(CN1CCOCC1)C(c1ccccc1)c1c(O)c2ccccc2oc1=O (centres undefined)
DLD-1 colon
  TGI: > 100 µM
HOP-18 NSCLC
  TGI: > 100 µM
KM20L2 colon
  TGI: > 100 µM
LXFL 529 NSCLC
  TGI: > 100 µM
M19-MEL melanoma
  TGI: > 100 µM
SNB-78 CNS
  TGI: > 100 µM
XF 498 CNS
  TGI: > 100 µM

## O=C1Sc2ccccc2C(=O)N2CCSC12 (centres undefined)
DLD-1 colon
  TGI: > 100 µM
HOP-18 NSCLC
  TGI: > 100 µM
KM20L2 colon
  TGI: > 100 µM
LXFL 529 NSCLC
  TGI: > 100 µM
M19-MEL melanoma
  TGI: > 100 µM
SNB-78 CNS
  TGI: > 100 µM

## O=C1CCC2(O)c3ccccc3C2Cc2ccccc21 (centres undefined)
DLD-1 colon
  TGI: > 100 µM
HOP-18 NSCLC
  TGI: > 100 µM
KM20L2 colon
  TGI: > 100 µM
M19-MEL melanoma
  TGI: > 100 µM
SNB-78 CNS
  TGI: > 100 µM
XF 498 CNS
  TGI: > 100 µM

## Clc1ccc(C2SCc3nc4ccccc4n32)cc1 (centres undefined)
HOP-18 NSCLC
  TGI: > 100 µM
KM20L2 colon
  TGI: > 100 µM
LXFL 529 NSCLC
  TGI: 87.1 µM
M19-MEL melanoma
  TGI: 54.3 µM
RXF-631 renal
  TGI: > 100 µM
SNB-78 CNS
  TGI: > 100 µM
XF 498 CNS
  TGI: 27.5 µM

## N#CC1=C(O)NC(O)=C(C#N)C1c1c(Cl)cccc1Cl
DLD-1 colon
  TGI: 58 µM
HOP-18 NSCLC
  TGI: > 100 µM
KM20L2 colon
  TGI: > 100 µM
M19-MEL melanoma
  TGI: > 100 µM
SNB-78 CNS
  TGI: > 100 µM
XF 498 CNS
  TGI: > 100 µM

## COc1ccc(C(C2=C(O)CC(C)OC2=O)C2=C(O)CC(C)OC2=O)cc1 (centres undefined)
DLD-1 colon
  TGI: > 100 µM
KM20L2 colon
  TGI: > 100 µM
LXFL 529 NSCLC
  TGI: > 100 µM
M19-MEL melanoma
  TGI: > 100 µM
RXF-631 renal
  TGI: > 100 µM
SNB-78 CNS
  TGI: > 100 µM

## COCC(C#N)NC1CC(OC2CC(O)(C(=O)CO)Cc3c(O)c4c(c(O)c32)C(=O)c2c(OC)cccc2C4=O)OC(C)C1O (centres undefined)
DLD-1 colon
  TGI: 4.67 µM
HOP-18 NSCLC
  TGI: 70.8 µM
KM20L2 colon
  TGI: 2.89 µM
LXFL 529 NSCLC
  TGI: 1.06 µM
M19-MEL melanoma
  TGI: 0.22 µM
RXF-631 renal
  TGI: 2.35 µM
SNB-78 CNS
  TGI: 4.54 µM
XF 498 CNS
  TGI: 0.0678 µM
